PubChem BioAssay AID1963856 (Molecular Pharmacology Branch, DTP, NCI, 2024)
Where “and” joins values, the source holds several entries; their conditions need not be identical. Equal values may be shown once.

Test system: LG0567-F671-PDC KRAS tumor spheroid viability
Experiment: Anticancer human tumor LG0567-F671-PDC patient-derived lung adenocarcinoma cell line growth inhibition [KRAS2]
Details: spheroids with HUVEC and MSC; for viability, T/C: stronger effect = lower value
Source text: Multicellular complex tumor spheroid response to RAS pathway inhibitors in combination with a targeted agents in patient-derived cell lines with oncogenic KRAS variants from multiple cancer types
A high-throughput screen of multi-cell type tumor spheroids was designed to identify active combinations of targeted small molecules and KRAS pathway inhibitors. Complex spheroids include a stromal component modeled by human endothelial cells (HUVEC) and fibroblasts modeled by human mesenchymal stem cells (MSCs). The concentration ranges selected for each drug and investigational agent were based upon clinically achievable concentrations if the clinical Cmax of the agent was known.
Compounds. The drugs and investigational agents: BI-3406 (NSC825286), BAY-293 (NSC824723), batoprotafib (TNO155; NSC825523), sotorasib (AMG 510; NSC818433), MRTX1257 (NSC819558), elimusertib (BAY 1895344; NSC800525), molibresib (GSK525762; NSC774829), temuterkib (LY3214996; NSC803410), venetoclax (NSC766270), alisertib (NSC759677), olaparib (NSC753686), talazoparib (NSC767125), erdafitinib (NSC781556), ipatasertib (NSC767898), cabozantinib (NSC761068), nintedanib (NSC756659), abemaciclib (NSC768073), docetaxel (NSC628503), trametinib (NSC758246), and sapanisertib (NSC764658) were obtained from the National Cancer Institute (NCI) Developmental Therapeutics Program Chemical Repository. The FDA-approved anticancer drug set is available from the Developmental Therapeutics Program. […] The stock solutions were prepared in dimethyl sulfoxide (DMSO, Sigma-Aldrich, St. Louis, MO, cat. D2650) at 800-fold the tested concentration and stored at -70 degrees C prior to their use. All drugs and investigational agents were tested over a range starting from a high concentration at or near the clinical Cmax and decreasing in half-log increments. If the clinical Cmax for an agent had not been determined, the highest concentration tested was 10 microM.
Cell Culture. All cells were maintained in an incubator at 37 degrees C and 5% CO2 with 95% humidity. The PDC lines were cultured according to standard operating procedures established by the NCI PDMR (https://pdmr.cancer.gov/sops/default.htm). Briefly, all PDCs were thawed and cultured in Matrigel-coated flasks prepared with a working solution of 1X Ham's F-12 nutrient mix, without supplementation (Invitrogen, Waltham, MA, cat. 11765054), 100 U/mL penicillin-streptomycin (Invitrogen, cat. 15140122), and 2.5% Matrigel (Corning Inc., Corning, NY, cat. 354248) for the first three passages. All PDCs were cultured in complete DMEM/F-12 media containing advanced DMEM/F-12 (Invitrogen, cat. 12634028), 4.9% defined fetal bovine serum, heat inactivated (HyClone Laboratories Inc., Logan, UT, cat. SH30070.03HI), 389 ng/mL hydrocortisone (Sigma-Aldrich, cat. H4001), 9.7 ng/mL human EGF recombinant protein (Invitrogen, cat. PHG0313), 23.4 microg/mL adenine (Sigma-Aldrich, cat. A2786), 97.3 U/mL penicillin-streptomycin (Invitrogen, cat. 15140122), 1.9 mM L-glutamine (Invitrogen, cat. 25030081), and 9.7 microM Y-27632 dihydrochloride (Tocris Bioscience, Bristol, United Kingdom, cat. 1254). The PDCs were cultured in complete DMEM/F12 media without 9.7 microM Y-27632 dihydrochloride for at least two passages prior to the screen. The established cell line HOP-62 was cultured in RPMI 1640 medium, HEPES (Invitrogen, cat. 22400105) with 10% defined fetal bovine serum (HyClone Laboratories Inc., cat. SH30070.03) and 2 mM L-glutamine (Invitrogen, cat. 25030081). The pooled donor HUVEC were cultured in endothelial cell growth medium 2 (PromoCell, Heidelberg, Germany, cat. C-22011) and the hMSC were cultured in mesenchymal stem cell growth medium 2 (PromoCell, cat. C-28009). For all experiments, HUVEC and hMSC were used at passages </=5, while the malignant cell lines were used at passages </=15. […]

[1] = curve of first compound, second compound 0.1 µM
[2] = curve of first compound, second compound 0.316 µM
[3] = curve of first compound, second compound 1 µM
[4] = curve of first compound, second compound 3.16 µM
[5] = curve of first compound, second compound 10 µM
[6] = second compound 0.1 µM, first compound 0.0316 µM
[7] = second compound 0.1 µM, first compound 0.1 µM
[8] = second compound 0.1 µM, first compound 0.316 µM
[9] = second compound 0.1 µM, first compound 1 µM
[10] = second compound 0.1 µM, first compound 3.16 µM
[11] = second compound 0.1 µM, first compound 10 µM
[12] = second compound 0.316 µM, first compound 0.0316 µM
[13] = second compound 0.316 µM, first compound 0.1 µM
[14] = second compound 0.316 µM, first compound 0.316 µM
[15] = second compound 0.316 µM, first compound 1 µM
[16] = second compound 0.316 µM, first compound 3.16 µM
[17] = second compound 0.316 µM, first compound 10 µM
[18] = second compound 1 µM, first compound 0.0316 µM
[19] = second compound 1 µM, first compound 0.1 µM
[20] = second compound 1 µM, first compound 0.316 µM
[21] = second compound 1 µM, first compound 1 µM
[22] = second compound 1 µM, first compound 3.16 µM
[23] = second compound 1 µM, first compound 10 µM
[24] = second compound 3.16 µM, first compound 0.0316 µM
[25] = second compound 3.16 µM, first compound 0.1 µM
[26] = second compound 3.16 µM, first compound 0.316 µM
[27] = second compound 3.16 µM, first compound 1 µM
[28] = second compound 3.16 µM, first compound 3.16 µM
[29] = second compound 3.16 µM, first compound 10 µM
[30] = second compound 10 µM, first compound 0.0316 µM
[31] = second compound 10 µM, first compound 0.1 µM
[32] = second compound 10 µM, first compound 0.316 µM
[33] = second compound 10 µM, first compound 1 µM
[34] = second compound 10 µM, first compound 3.16 µM
[35] = second compound 10 µM, first compound 10 µM
[36] = compound alone, run of 07/12/2021
[37] = compound alone, run of 07/19/2021
[38] = compound alone, run of 07/26/2021
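Also: drug exposure lasted seven days after spheroids formed for three days.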
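For viability, T/C in this document: 100% = DMSO vehicle control viability.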

Compound: Cn1nccc1Nc1nccc(-c2cc3c(s2)C(C)(C)N(CCN2CCOCC2)C3=O)n1 + CNCc1ccccc1-c1csc(C(C)Nc2nc(C)nc3cc(OC)c(OC)cc23)c1
- IC50 [1]: 581 nM
- IC50 [2]: 557 nM
- IC50 [3]: 340 nM
- IC50 [4]: 794 nM
- IC50 [5]: < 31.6 nM
- viability, T/C [6]: 83.6%
- viability, T/C [7]: 68.6%
- viability, T/C [8]: 59.6%
- viability, T/C [9]: 44.1%
- viability, T/C [10]: 31.7%
- viability, T/C [11]: 32%
- viability, T/C [12]: 66.2%
- viability, T/C [13]: 65.1%
- viability, T/C [14]: 54.2%
- viability, T/C [15]: 46%
- viability, T/C [16]: 28.3%
- viability, T/C [17]: 26.8%
- viability, T/C [18]: 66.2%
- viability, T/C [19]: 66.1%
- viability, T/C [20]: 49.7%
- viability, T/C [21]: 35.6%
- viability, T/C [22]: 29.1%
- viability, T/C [23]: 26.3%
- viability, T/C [24]: 73.9%
- viability, T/C [25]: 71.7%
- viability, T/C [26]: 53.3%
- viability, T/C [27]: 44.7%
- viability, T/C [28]: 36.6%
- viability, T/C [29]: 1.09%
- viability, T/C [30]: 0.21%
- viability, T/C [31]: 0.18%
- viability, T/C [32]: 0.76%
- viability, T/C [33]: 0.16%
- viability, T/C [34]: 1.91%
- viability, T/C [35]: 0.18%

Compound: C=CC(=O)N1CCN(c2nc(OCC3CCCN3C)nc3c2CCN(c2cccc4cccc(C)c24)C3)CC1CC#N (stereo not given)
- viability, T/C (compound 0.0316 µM): 35.5% [middle of 17 runs]
- viability, T/C (compound 0.1 µM): 31.3% [middle of 16 runs]
- viability, T/C (compound 1 µM): 30.4% [middle of 17 runs]
- IC50 [36]: < 31.6 nM
- IC50 [37]: < 31.6 nM
- IC50 [38]: < 31.6 nM

Compound: Cn1nccc1Nc1nccc(-c2cc3c(s2)C(C)(C)N(CCN2CCOCC2)C3=O)n1 + COc1cc2nc(C)nc(NC(C)c3cc(N)cc(C(F)(F)F)c3)c2cc1OC1CCOC1
- IC50 [1]: 495 nM
- IC50 [2]: 456 nM
- IC50 [3]: 506 nM
- IC50 [4]: 528 nM
- IC50 [5]: 609 nM
- viability, T/C [6]: 79.7%
- viability, T/C [7]: 67%
- viability, T/C [8]: 55.3%
- viability, T/C [9]: 43.2%
- viability, T/C [10]: 31.3%
- viability, T/C [11]: 26.6%
- viability, T/C [12]: 80.5%
- viability, T/C [13]: 70.7%
- viability, T/C [14]: 53.9%
- viability, T/C [15]: 42.1%
- viability, T/C [16]: 25.3%
- viability, T/C [17]: 26.1%
- viability, T/C [18]: 68.2%
- viability, T/C [19]: 68%
- viability, T/C [20]: 54.8%
- viability, T/C [21]: 41.5%
- viability, T/C [22]: 30.3%
- viability, T/C [23]: 25.5%
- viability, T/C [24]: 71.1%
- viability, T/C [25]: 65.6%
- viability, T/C [26]: 56.5%
- viability, T/C [27]: 42.9%
- viability, T/C [28]: 30.8%
- viability, T/C [29]: 30.2%
- viability, T/C [30]: 74.6%
- viability, T/C [31]: 72.2%
- viability, T/C [32]: 55.8%
- viability, T/C [33]: 45.4%
- viability, T/C [34]: 33.4%
- viability, T/C [35]: 29.5%

Compound: COc1cc2nc(C)nc(NC(C)c3cc(N)cc(C(F)(F)F)c3)c2cc1OC1CCOC1 (stereo not given)
- viability, T/C (compound 0.316 µM): 71.1% [middle of 17 runs]
- IC50 [36]: > 10000 nM and 2620 nM and 2850 nM
- IC50 [37]: > 10000 nM
- IC50 [38]: > 10000 nM

Compound: CCNC(=O)CC1N=C(c2ccc(Cl)cc2)c2cc(OC)ccc2-n2c(C)nnc21 (stereo not given) + C=CC(=O)N1CCN(c2nc(OCC3CCCN3C)nc3c2CCN(c2cccc4cccc(C)c24)C3)CC1CC#N
- IC50 (curve of first compound, second compound 0.0316 µM): 51.2 nM
- IC50 [1]: < 31.6 nM
- IC50 [2]: 2000 nM
- IC50 [3]: < 31.6 nM
- IC50 [4]: < 31.6 nM
- viability, T/C (second compound 0.0316 µM, first compound 0.0316 µM): 48.4%
- viability, T/C (second compound 0.0316 µM, first compound 0.1 µM): 52.5%
- viability, T/C (second compound 0.0316 µM, first compound 0.316 µM): 36.7%
- viability, T/C (second compound 0.0316 µM, first compound 1 µM): 25.7%
- viability, T/C (second compound 0.0316 µM, first compound 3.16 µM): 17.2%
- viability, T/C (second compound 0.0316 µM, first compound 10 µM): 16.6%
- viability, T/C [6]: 46.5%
- viability, T/C [7]: 41.5%
- viability, T/C [8]: 25.6%
- viability, T/C [9]: 19.4%
- viability, T/C [10]: 15.3%
- viability, T/C [11]: 12.9%
- viability, T/C [12]: 99.2%
- viability, T/C [13]: 109%
- viability, T/C [14]: 72.8%
- viability, T/C [15]: 60.9%
- viability, T/C [16]: 46.8%
- viability, T/C [17]: 40.2%
- viability, T/C [18]: 35.7%
- viability, T/C [19]: 32.3%
- viability, T/C [20]: 24.6%
- viability, T/C [21]: 17.5%
- viability, T/C [22]: 14.6%
- viability, T/C [23]: 12.8%
- viability, T/C [24]: 41.3%
- viability, T/C [25]: 32.7%
- viability, T/C [26]: 22.6%
- viability, T/C [27]: 13.3%
- viability, T/C [28]: 9.07%
- viability, T/C [29]: 7.07%
